Assay results taken from patent US20250129083A1, “IMIDAZOTETRAZINE COMPOUNDS AND TREATMENT OF TMZ-RESISTANT CANCERS” (THE BOARD OF TRUSTEES OF THE UNIVERSITY OF ILLINOIS, priority 2022, published 2025).
Read-outs that look alike come from different tables or passages of the source.

Columns and labels:
GL261 MGMT+ cells = experiment: Cell viability assay (Alamar Blue, 7 days), GL261 MGMT+; format: cell-based; conditions: Mus musculus, GL261, 168 h
Protocol: To further explore the ability of CPZ to evade MGMT-mediated resistance, MGMT-expressing T98G cells were pretreated with MGMT inhibitor O6BG followed by treatment with TMZ or CPZ. […] This cell death potentiation by TMZ upon treatment with an MGMT inhibitor was also observed in MGMT-expressing cell lines U118MG and RKO, whereas the efficacy of CPZ was again unaffected. For MGMT (−)/MMR (−) HCT116 cells, negligible potentiation of TMZ cytotoxicity was observed upon pretreatment with O6BG, confirming that loss of MMR capacity, not MGMT expression, was responsible for resistance to TMZ in HCT116 cells. Additionally, human MGMT was knocked into the MGMT-negative mouse glioma cell line, GL261, establishing the novel cell line GL261 MGMT+.
(§1) Cell Culture and Reagents. All cell lines were grown in a 37° C., 5% CO2, humidified environment, in media containing 1% penicillin/streptomycin. Stable cell line generation of GL261 MGMT+ was purchased from Creative Biogene. Cell culture conditions are as follows: cell lines U87, T98G, and RKO were grown in EMEM with 10% FBS. D54, GL261, GL261 MGMT+, and U118MG cell lines were grown in DMEM with 10% FBS. HCT116 cells were grown in RMPI with 10% FBS. D341 Med cells were grown in EMEM with 20% FBS. Temozolomide (TMZ) was purchased from AK Scientific. TMZ analogues were synthesized as described below. Compounds were dissolved in DMSO (1% final concentration, Fisher Chemical) for cell culture studies.
(§2) Cell Viability Assays. Cells were harvested, seeded in a 96-well plate and allowed to adhere. After three hours, compound was added to each well in DMSO (1% final concentration). Cells were incubated for seven days (unless otherwise noted) before viability was assessed by the Alamar Blue assay. Raptinal (20 μM) was used as a dead control.
Plated 1500 c/w for GL261; 600 c/w for U87; 600 c/w for U118MG; 1500 c/w for GL261 MGMT+ Incubated ovn and added 1 μL of compound in DMSO the next day. Incubated over 7 days; added Alamar Blue to assess cell viability and used 10 μM Raptinal as dead control. Error is SEM, n=3.

HCT116 cells = experiment: Cell viability assay (Alamar Blue, 7 days), HCT116; format: cell-based; conditions: Homo sapiens, HCT-116, 168 h
Protocol: as §1, §2

[1] = system: expanded panel of GBM cell lines with or without MGMT expression; experiment: Cell viability in expanded panel of GBM cell lines; format: cell-based; conditions: for IC50: 168 h, 7 day
Protocol: FIG. 1A-C. Selection and evaluation of MGMT-independent imidazotetrazines. (A) IC50 values (M, 7 days) of TMZ and compound 10 in an expanded panel of GBM cell lines. Cell viability was assessed via the Alamar Blue assay, n≥3, error is SEM. (B) Hydrolytic stability of TMZ at pH 7, 7.4, and 8. Percentage of prodrug remaining was quantified by HPLC, n≥2. (C) Hydrolytic stability of compound 10 at pH 7, 7.4, and 8. Percentage of prodrug remaining was quantified by HPLC, n≥2.
FIG. 2A-F. (A) 7 day IC50 values (M) of compound 10 and CPZ in an expanded panel of GBM cell lines. Cell viability was assessed via the Alamar Blue assay, n≥3, error is SEM. (B-E) 7 day dose-response curves of TMZ and CPZ in cell lines with variable MGMT and MMR status. Error is SEM, n≥3. (F) Killing kinetics of CPZ compared to TMZ in the U87 cell line. Cells were treated with compound once and viability was assessed every 24 hours via Alamar Blue assay. Error is SEM, n≥2.
as §2

[2] = system: S. typhimurium TA100 strain; experiment: Ames test, TA100; format: cell-based; conditions: 30 μM; for Ames test revertant (mutated) colonies, TA100: 5 days, no S9 activation
Protocol: Next, we measured the mutagenicity of CPZ versus TMZ. TMZ and other DNA methylating chemotherapies are known mutagens, inducing G:C→A:T mutations due to erroneous recognition of O^6-methylguanine. […] CPZ and TMZ (at 30 μM) were also assessed in the E. coli WP2 uvrA pKM101 strain, which is considered one of the more sensitive Ames tester strains available.
Ames Test. Compounds were assessed at the indicated concentrations in the TA100 tester strain using the Muta-ChromoPlate 96-well microplate version of the Ames test (Environmental Bio-Detection Products, Prod. No. 5051) according to manufacturer's instructions. In brief, TA100 S. typhimurium bacteria were grown overnight and plated with compound, growth medium, and indicator (no S9 activation) in 96 well plates. Bacteria were incubated for 5 days before the number of wells per 96 well plate containing revertant colonies were identified colorimetrically.

[3] = Assessment of hematological toxicity; format: in vivo
Excerpt: Arguably the most important question when designing an alkylating agent able to evade MGMT-mediated resistance is the resultant effect on hematological toxicity. MGMT operates as a systemic protectant against alkylating xenobiotics. […] Therefore, an MGMT-independent alkylating agent like CPZ could render off-target cells vulnerable to irreparable DNA alkylation and result in a similar degree of toxicity. We hypothesized that the increased BBB permeability of CPZ would divert enough of the drug to the brain such that it could be tolerated at a therapeutically useful dose. The hematological effects of a single dose of TMZ or CPZ were compared head-to-head in vivo. Mice were treated with 125 mg/kg TMZ or CPZ intravenously; this dose was selected because 125 mg/kg TMZ is known to induce nonlethal toxicity in mice. After 7 days, the mice were sacrificed and complete blood counts were obtained. […] Additionally, the maximum tolerated dose (MTD) of CPZ was determined to be 66 mg/kg when dosed intraperitoneally (IP), once-per-day over five days. This matches the reported MTD of TMZ at the same schedule (˜66 mg/kg).
Assessment of Hematological Toxicity. Male CD-1 IGS mice (n≥3 mice/group) were administered a single dose of 125 mg/kg compound intravenously. Imidazotetrazines were formulated with DMSO, Tween-20, and 30% (w/v) SBE-PCD in sterile water immediately prior to injection. […]

[4] = 7 day dose-response, human MGMT knock-in, read-out: IC50, GL261 MGMT+
[5] = MGMT (+) MMR (+), 7 days, 1500 c/w, SEM, n=3, read-out: Activity, GL261 MGMT+
[6] = MGMT (−) MMR (−), 7 days, read-out: Activity, HCT116
[7] = MGMT (−)/MMR (−), 7 day, read-out: IC50, HCT116

For `Cn1nnc2c(C(N)=O)ncn2c1=O` [TMZ, temozolomide, reference compound], the IC50 (GL261 MGMT+ cells; [4]) was > 1000 µM, the IC50 (GL261 MGMT+ cells; [5]) was > 1000 µM and the IC50 (HCT116 cells; [6]) was 840 ± 30 µM. The IC50 (HCT116 cells; [7]) was > 800 µM, the “Difference in IC50 values between MGMT-negative and positive cell lines” value ([1]; expanded GBM panel) was > 6 fold and the “Mutagenicity, TA100” value [2] was “mutagenic”. The “Ames test revertant (mutated) colonies, TA100” value [2] was 35/96 and the “White blood cell, lymphocyte, and neutrophil counts” value ([3]; mice, single 125 mg/kg IV dose, 7 days) was “depletions in white blood cells, lymphocytes, and neutrophils”.
In the case of `C#CCn1nnc2c(Cl)ncn2c1=O` [CPZ, 8-chloro-3-(prop-2-yn-1-yl)imidazo[5,1-d][1,2,3,5]tetrazin-4(3H)-one], the IC50 (GL261 MGMT+ cells; [4]) is reported as 29 µM, the IC50 (GL261 MGMT+ cells; [5]) is reported as 29 ± 5 µM and the IC50 (HCT116 cells; [6]) is reported as 14 ± 16 µM. It also gave an IC50 (HCT116 cells; [7]) of 14 µM, an IC50 ([1]; read-out: Average IC50 in MGMT (+) cell lines) of 22 µM and an IC50 ([1]; read-out: Average IC50 in MGMT (−) cell lines) of 16 µM. For the same compound, the “Mutagenicity, TA100” value [2] was “non-mutagenic”, the “Ames test revertant (mutated) colonies, TA100” value [2] was “no revertant colonies” and the “Other hematological symptoms such as thrombocytopenia” value ([3]; mouse, in vivo, iv, 125 mg/kg) was “did not give rise to other hematological symptoms such as thrombocytopenia”.
